Reference: patent US20260151518A1, “LEUKOCYTE-SPECIFIC CELL PENETRATING MOLECULES” (Amytrx Therapeutics, Inc., priority 2021, published 2026)
Marks after values point to notes of the source that are not given here.

Assay: Tissue distribution of radioactivity by quantitative whole body autoradiography (QWBA) after single intravenous [3H]-AMTX-100
Assay type: in vivo, rat
Procedure: The formulation was administered directly into a tail vein. The dose volume (2.5 mL/kg) was used to achieve a dose level of 5 mg/kg and radioactive dose levels of 100 μCi/kg (Phase 1) and 500 μCi/kg (Phase 2). The dose formulation was stirred continuously throughout the dosing procedure.
Quantitative Whole Body Autoradiography (QWBA). The frozen carcasses were subjected to QWBA. Sections were presented at up to five different levels of the rat body to include between 30 and 40 tissues (subject to presence of sufficient radioactivity).
The freeze-dried whole body autoradiography sections were exposed to phosphor-storage imaging plates and incubated at ambient temperature in the dark for seven days. Calibrated autoradiographic blood standards containing known amounts of radioactivity (nCi/g) were included in each exposure.
Distribution of radioactivity in tissues and [^3H]-blood standards (prepared and validated at Pharmaron UK Ltd.) was determined and quantified using a Fuji FLA-5100 fluorescent image analyzing system and associated Tina (version 2.09) and SeeScan (version 2.0) software. For each exposure, a standard curve was produced in SeeScan using the data from the autoradiographic blood standards from which tissue concentrations of radioactivity (μg equivalents/g) were determined.
A representative background radioactivity measurement for each exposure plate used was also taken. The number of measurements for each particular tissue was determined by the number of levels it appeared in. Multiple measurements were therefore performed for larger tissues that appeared in more than one level (e.g. liver), with only one measurement obtained for small tissues (e.g. thyroid gland). The limit of accurate quantification was considered to be the lowest [^3H]-blood standard visible.
Three of the carcasses obtained from the eight male Sprague Dawley rats subjected to whole blood collection and analysis after each receiving a single intravenous administration of [^3H]-AMTX-100, were selected for QWBA analysis at each of the following time points: 10 minutes and 2 and 12 hours post-dose.
Each carcass was snap frozen by immersion in a hexane/dry ice mixture immediately after collection and was then stored at approximately −20° C., pending analysis by QWBA.

[1] = single intravenous, 5 mg/kg, rat, 10 min
[2] = single intravenous, 5 mg/kg, rat, 2 hr
[3] = single intravenous, 5 mg/kg, rat, 12 hr

CSCC[C@@H]1NC(=O)[C@H](CC(C)C)NC(=O)[C@H](CCCCN)NC(=O)[C@H](CCC(N)=O)CC(=O)[C@H](CCCNC(=N)N)NC(=O)[C@H](CCCCN)NC(=O)[C@H](CCCNC(=N)N)NC(=O)[C@H](CCC(N)=O)NC(=O)[C@H](C(C)C)NC(=O)[C@@H](NC(=O)[C@@H]2CCCN2C(=O)[C@H](C)NC(=O)[C@H](CC(C)C)NC(=O)[C@H](CC(C)C)NC(=O)[C@H](C)NC(=O)[C@H](CC(C)C)NC(=O)[C@H](CC(C)C)NC(=O)[C@@H](NC(=O)[C@H](C)NC(=O)[C@@H]2CCCN2C(=O)[C@H](CC(C)C)NC(=O)[C@H](CC(C)C)NC(=O)[C@H](C)NC(=O)[C@@H](NC(=O)[C@H](C)NC(=O)[C@H](C)N)C(C)C)C(C)C)CSSC[C@@H](C(=O)O)NC(=O)[C@@H]2CCCN2C1=O [[^3H]-AMTX-100]
Radioactivity localization in heart and other muscle cells (rats): lack of radioactivity localization in heart and other muscle cells | Organ localization of radioactivity (rats, spleen, lung, liver, lymph nodes, kidney, adrenal gland, bone marrow, pancreas, small intestine, etc.): localized to organs where immune cells are known to reside and traffic through | Concentration of radioactivity in Adrenal gland [1]: 9.93 μg equivalents/g | Concentration of radioactivity in Blood: residual cardiac [1]: 2.89 μg equivalents/g | Concentration of radioactivity in Bone [1]: BLQ (Below lower limit of accurate quantification (<0.36 μg equivalents/g)) | Concentration of radioactivity in Bone marror [1]: 4.44 μg equivalents/g | Concentration of radioactivity in Brain [1]: BLQ (Below lower limit of accurate quantification (<0.36 μg equivalents/g)) | Concentration of radioactivity in Caecum contents [1]: BLQ (Below lower limit of accurate quantification (<0.36 μg equivalents/g)) | Concentration of radioactivity in Caecum mucosa [1]: 0.82 μg equivalents/g | Concentration of radioactivity in Choroid plexus [1]: 0.71 μg equivalents/g | Concentration of radioactivity in Epididymis [1]: 0.44 μg equivalents/g | Concentration of radioactivity in Ex-orbital lachrymal gland [1]: 0.71 μg equivalents/g | Concentration of radioactivity in Eye: lens [1]: BLQ (Below lower limit of accurate quantification (<0.36 μg equivalents/g)) | Concentration of radioactivity in Eye: whole [1]: BLQ (Below lower limit of accurate quantification (<0.36 μg equivalents/g)) | Concentration of radioactivity in Fat: brown [1]: 0.59 μg equivalents/g | Concentration of radioactivity in Fat: white [1]: 0.38 μg equivalents/g | Concentration of radioactivity in Forestomach mucosa [1]: 0.52 μg equivalents/g | Concentration of radioactivity in Glandular stomach mucosa [1]: 1.13 μg equivalents/g | Concentration of radioactivity in Harderian gland [1]: 0.46 μg equivalents/g | Concentration of radioactivity in Kidney: cortex [1]: 16.30 μg equivalents/g | Concentration of radioactivity in Kidney: medulla [1]: 10.10 μg equivalents/g | Concentration of radioactivity in Kidney: whole [1]: 13.30 μg equivalents/g | Concentration of radioactivity in Large intestine contents [1]: BLQ (Below lower limit of accurate quantification (<0.36 μg equivalents/g)) | Concentration of radioactivity in Large intestine mucosa [1]: 0.80 μg equivalents/g | Concentration of radioactivity in Liver [1]: 58.60 μg equivalents/g | Concentration of radioactivity in Lung [1]: 96.70 μg equivalents/g | Concentration of radioactivity in Lymph node [1]: 1.13 μg equivalents/g | Concentration of radioactivity in Muscle [1]: 0.52 μg equivalents/g | Concentration of radioactivity in Myocardium [1]: 1.25 μg equivalents/g | Concentration of radioactivity in Pancreas [1]: 1.71 μg equivalents/g | Concentration of radioactivity in Pituitary gland [1]: 2.21 μg equivalents/g | Concentration of radioactivity in Prostate gland [1]: 0.41 μg equivalents/g | Concentration of radioactivity in Salivary gland [1]: 1.09 μg equivalents/g | Concentration of radioactivity in Skin [1]: 0.48 μg equivalents/g | Concentration of radioactivity in Small intestine contents [1]: BLQ (Below lower limit of accurate quantification (<0.36 μg equivalents/g)) | Concentration of radioactivity in Small intestine mucosa [1]: 0.54 μg equivalents/g | Concentration of radioactivity in Spinal cord [1]: BLQ (Below lower limit of accurate quantification (<0.36 μg equivalents/g)) | Concentration of radioactivity in Spleen: red pulp [1]: 15.40 μg equivalents/g | Concentration of radioactivity in Spleen: white pulp [1]: 8.70 μg equivalents/g | Concentration of radioactivity in Spleen: whole [1]: 55.80 μg equivalents/g | Concentration of radioactivity in Stomach contents [1]: BLQ (Below lower limit of accurate quantification (<0.36 μg equivalents/g)) | Concentration of radioactivity in Testis [1]: BLQ (Below lower limit of accurate quantification (<0.36 μg equivalents/g)) | Concentration of radioactivity in Thymus [1]: 0.45 μg equivalents/g | Concentration of radioactivity in Thyroid gland [1]: 1.66 μg equivalents/g | Concentration of radioactivity in Urinary bladder contents [1]: 67.50 μg equivalents/g | Concentration of radioactivity in Urinary bladder wall [1]: 0.69 μg equivalents/g | Concentration of radioactivity in Adrenal gland [2]: 5.33 μg equivalents/g | Concentration of radioactivity in Blood: residual cardiac [2]: 0.82 μg equivalents/g | Concentration of radioactivity in Bone [2]: BLQ (Below lower limit of accurate quantification (<0.36 μg equivalents/g)) | Concentration of radioactivity in Bone marror [2]: 4.40 μg equivalents/g | Concentration of radioactivity in Brain [2]: BLQ (Below lower limit of accurate quantification (<0.36 μg equivalents/g)) | Concentration of radioactivity in Caecum contents [2]: BLQ (Below lower limit of accurate quantification (<0.36 μg equivalents/g)) | Concentration of radioactivity in Caecum mucosa [2]: 0.76 μg equivalents/g | Concentration of radioactivity in Epididymis [2]: 0.67 μg equivalents/g | Concentration of radioactivity in Ex-orbital lachrymal gland [2]: 0.46 μg equivalents/g | Concentration of radioactivity in Eye: lens [2]: BLQ (Below lower limit of accurate quantification (<0.36 μg equivalents/g)) | Concentration of radioactivity in Eye: whole [2]: BLQ (Below lower limit of accurate quantification (<0.36 μg equivalents/g)) | Concentration of radioactivity in Fat: brown [2]: BLQ (Below lower limit of accurate quantification (<0.36 μg equivalents/g)) | Concentration of radioactivity in Fat: white [2]: BLQ (Below lower limit of accurate quantification (<0.36 μg equivalents/g)) | Concentration of radioactivity in Forestomach mucosa [2]: 0.57 μg equivalents/g | Concentration of radioactivity in Glandular stomach mucosa [2]: 0.81 μg equivalents/g | Concentration of radioactivity in Harderian gland [2]: 0.37 μg equivalents/g | Concentration of radioactivity in Kidney: cortex [2]: 9.59 μg equivalents/g | Concentration of radioactivity in Kidney: medulla [2]: 4.47 μg equivalents/g | Concentration of radioactivity in Kidney: whole [2]: 7.35 μg equivalents/g | Concentration of radioactivity in Large intestine contents [2]: BLQ (Below lower limit of accurate quantification (<0.36 μg equivalents/g)) | Concentration of radioactivity in Large intestine mucosa [2]: 0.63 μg equivalents/g | Concentration of radioactivity in Liver [2]: 31.60 μg equivalents/g | Concentration of radioactivity in Lung [2]: 31.90 μg equivalents/g | Concentration of radioactivity in Lymph node [2]: 0.83 μg equivalents/g | Concentration of radioactivity in Muscle [2]: BLQ (Below lower limit of accurate quantification (<0.36 μg equivalents/g)) | Concentration of radioactivity in Myocardium [2]: 0.53 μg equivalents/g | Concentration of radioactivity in Pancreas [2]: 1.69 μg equivalents/g | Concentration of radioactivity in Pituitary gland [2]: 1.58 μg equivalents/g | Concentration of radioactivity in Prostate gland [2]: 0.83 μg equivalents/g | Concentration of radioactivity in Salivary gland [2]: 0.80 μg equivalents/g | Concentration of radioactivity in Skin [2]: 0.39 μg equivalents/g | Concentration of radioactivity in Small intestine contents [2]: 1.23 μg equivalents/g | Concentration of radioactivity in Small intestine mucosa [2]: 0.89 μg equivalents/g | Concentration of radioactivity in Spinal cord [2]: BLQ (Below lower limit of accurate quantification (<0.36 μg equivalents/g)) | Concentration of radioactivity in Spleen: red pulp [2]: 11.90 μg equivalents/g | Concentration of radioactivity in Spleen: white pulp [2]: 2.92 μg equivalents/g | Concentration of radioactivity in Spleen: whole [2]: 41.80 μg equivalents/g | Concentration of radioactivity in Stomach contents [2]: BLQ (Below lower limit of accurate quantification (<0.36 μg equivalents/g)) | Concentration of radioactivity in Testis [2]: 0.37 μg equivalents/g | Concentration of radioactivity in Thymus [2]: 0.68 μg equivalents/g | Concentration of radioactivity in Thyroid gland [2]: 1.29 μg equivalents/g | Concentration of radioactivity in Urinary bladder wall [2]: 1.22 μg equivalents/g | Concentration of radioactivity in Urinary bladder contents (single intravenous, 5 mg/kg, rat, 2 hr, above upper limit of accurate quantification (>153 μg equivalents/g)): 219.00* μg equivalents/g | Concentration of radioactivity in Adrenal gland [3]: 0.44 μg equivalents/g | Concentration of radioactivity in Blood: residual cardiac [3]: BLQ (Below lower limit of accurate quantification (<0.36 μg equivalents/g)) | Concentration of radioactivity in Bone marror [3]: 2.18 μg equivalents/g | Concentration of radioactivity in Caecum contents [3]: BLQ (Below lower limit of accurate quantification (<0.36 μg equivalents/g)) | Concentration of radioactivity in Kidney: cortex [3]: 0.61 μg equivalents/g | Concentration of radioactivity in Kidney: medulla [3]: 0.45 μg equivalents/g | Concentration of radioactivity in Kidney: whole [3]: 0.54 μg equivalents/g | Concentration of radioactivity in Large intestine contents [3]: 0.36 μg equivalents/g | Concentration of radioactivity in Large intestine mucosa [3]: BLQ (Below lower limit of accurate quantification (<0.36 μg equivalents/g)) | Concentration of radioactivity in Liver [3]: 8.77 μg equivalents/g | Concentration of radioactivity in Lung [3]: 30.10 μg equivalents/g | Concentration of radioactivity in Muscle [3]: BLQ (Below lower limit of accurate quantification (<0.36 μg equivalents/g)) | Concentration of radioactivity in Pancreas [3]: BLQ (Below lower limit of accurate quantification (<0.36 μg equivalents/g)) | Concentration of radioactivity in Small intestine contents [3]: 0.47 μg equivalents/g | Concentration of radioactivity in Small intestine mucosa [3]: BLQ (Below lower limit of accurate quantification (<0.36 μg equivalents/g)) | Concentration of radioactivity in Spleen: red pulp [3]: 6.89 μg equivalents/g | Concentration of radioactivity in Spleen: white pulp [3]: 0.89 μg equivalents/g | Concentration of radioactivity in Spleen: whole [3]: 11.90 μg equivalents/g | Concentration of radioactivity in Testis [3]: BLQ (Below lower limit of accurate quantification (<0.36 μg equivalents/g)) | Concentration of radioactivity in Urinary bladder contents [3]: 11.90 μg equivalents/g | Concentration of radioactivity in Urinary bladder wall [3]: BLQ (Below lower limit of accurate quantification (<0.36 μg equivalents/g))
